{"source": "the kinase profiling compilation of Christmann-Franck et al. (2016)", "key": {"PLK4 (human)": {"biological_target": "PLK4 (human) (UniProt O00444)", "assay": "KINOMEscan competition binding", "settings": "compound 10.0 µM"}, "GAK (human)": {"biological_target": "GAK (human) (UniProt O14976)", "assay": "KINOMEscan competition binding", "settings": "compound 10.0 µM"}, "CLK2 (human)": {"biological_target": "CLK2 (human) (UniProt P49760)", "assay": "KINOMEscan competition binding", "settings": "compound 10.0 µM"}, "STK25 (human)": {"biological_target": "STK25 (human) (UniProt O00506)", "assay": "KINOMEscan competition binding", "settings": "compound 10.0 µM"}, "CDK16 (human)": {"biological_target": "CDK16 (human) (UniProt Q00536)", "assay": "KINOMEscan competition binding", "settings": "compound 10.0 µM"}, "AAK1 (human)": {"biological_target": "AAK1 (human) (UniProt Q2M2I8)", "assay": "KINOMEscan competition binding", "settings": "compound 10.0 µM"}, "MAP2K3 (human)": {"biological_target": "MAP2K3 (human) (UniProt P46734)", "assay": "KINOMEscan competition binding", "settings": "compound 10.0 µM"}, "RPS6KA1 KD2 (human)": {"biological_target": "RPS6KA1 KD2 (human) (UniProt Q15418)", "sequence (Q15418 whole entry, looked up)": "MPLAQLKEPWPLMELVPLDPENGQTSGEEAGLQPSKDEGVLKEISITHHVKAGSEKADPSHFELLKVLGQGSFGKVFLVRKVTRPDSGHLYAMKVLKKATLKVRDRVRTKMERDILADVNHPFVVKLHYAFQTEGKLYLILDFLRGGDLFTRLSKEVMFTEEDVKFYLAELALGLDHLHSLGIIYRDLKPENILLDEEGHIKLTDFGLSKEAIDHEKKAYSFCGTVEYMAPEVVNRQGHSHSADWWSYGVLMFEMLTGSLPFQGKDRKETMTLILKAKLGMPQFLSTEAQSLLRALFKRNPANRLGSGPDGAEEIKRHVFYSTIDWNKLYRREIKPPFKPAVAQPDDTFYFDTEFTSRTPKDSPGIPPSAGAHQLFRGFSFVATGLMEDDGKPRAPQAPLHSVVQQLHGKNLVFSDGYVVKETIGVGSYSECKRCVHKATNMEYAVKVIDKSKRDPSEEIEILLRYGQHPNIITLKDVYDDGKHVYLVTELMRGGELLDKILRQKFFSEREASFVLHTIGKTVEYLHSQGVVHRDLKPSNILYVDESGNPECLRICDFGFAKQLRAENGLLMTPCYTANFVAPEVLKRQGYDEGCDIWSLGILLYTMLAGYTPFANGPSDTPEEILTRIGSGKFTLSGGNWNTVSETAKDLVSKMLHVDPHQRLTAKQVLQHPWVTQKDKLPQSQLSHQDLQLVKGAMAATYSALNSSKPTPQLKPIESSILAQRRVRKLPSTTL", "assay": "KINOMEscan competition binding", "settings": "compound 10.0 µM"}, "MYLK4 (human)": {"biological_target": "MYLK4 (human) (UniProt Q86YV6)", "assay": "KINOMEscan competition binding", "settings": "compound 10.0 µM"}, "TAOK1 (human)": {"biological_target": "TAOK1 (human) (UniProt Q7L7X3)", "assay": "KINOMEscan competition binding", "settings": "compound 10.0 µM"}, "PIM2 (human) [1]": {"biological_target": "PIM2 (human) (UniProt Q9P1W9)", "sequence (Q9P1W9 whole entry, looked up)": "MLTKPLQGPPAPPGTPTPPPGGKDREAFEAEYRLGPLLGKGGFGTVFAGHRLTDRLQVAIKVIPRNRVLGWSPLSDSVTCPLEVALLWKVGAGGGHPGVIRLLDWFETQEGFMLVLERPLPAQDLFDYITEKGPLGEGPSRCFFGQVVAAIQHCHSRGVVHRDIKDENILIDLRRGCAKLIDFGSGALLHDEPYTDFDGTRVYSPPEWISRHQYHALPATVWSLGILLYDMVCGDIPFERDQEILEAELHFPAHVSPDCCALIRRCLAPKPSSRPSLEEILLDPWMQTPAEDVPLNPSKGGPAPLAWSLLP", "assay": "KINOMEscan competition binding", "settings": "compound 10.0 µM"}, "MAPK10 (human)": {"biological_target": "MAPK10 (human) (UniProt P53779)", "assay": "KINOMEscan competition binding", "settings": "compound 10.0 µM"}, "RPS6KA2 KD2 (human)": {"biological_target": "RPS6KA2 KD2 (human) (UniProt Q15349)", "sequence (Q15349 whole entry, looked up)": "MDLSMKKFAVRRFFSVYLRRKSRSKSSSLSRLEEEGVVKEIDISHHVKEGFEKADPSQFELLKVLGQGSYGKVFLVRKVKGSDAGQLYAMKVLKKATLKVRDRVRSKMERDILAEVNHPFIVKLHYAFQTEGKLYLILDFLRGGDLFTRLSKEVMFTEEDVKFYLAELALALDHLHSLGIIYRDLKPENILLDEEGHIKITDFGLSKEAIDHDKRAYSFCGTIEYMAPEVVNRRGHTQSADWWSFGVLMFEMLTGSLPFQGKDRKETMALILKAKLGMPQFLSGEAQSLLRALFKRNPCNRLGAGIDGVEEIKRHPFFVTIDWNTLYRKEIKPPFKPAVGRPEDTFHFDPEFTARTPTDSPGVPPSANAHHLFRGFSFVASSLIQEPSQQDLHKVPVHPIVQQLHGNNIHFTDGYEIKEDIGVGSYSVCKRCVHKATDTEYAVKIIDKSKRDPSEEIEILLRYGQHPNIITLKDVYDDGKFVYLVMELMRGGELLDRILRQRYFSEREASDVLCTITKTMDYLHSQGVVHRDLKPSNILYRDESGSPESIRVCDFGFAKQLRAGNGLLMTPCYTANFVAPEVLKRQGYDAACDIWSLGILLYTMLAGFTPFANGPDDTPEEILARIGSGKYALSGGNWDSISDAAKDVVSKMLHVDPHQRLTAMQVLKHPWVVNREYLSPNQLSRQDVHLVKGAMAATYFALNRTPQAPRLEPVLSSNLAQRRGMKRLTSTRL", "assay": "KINOMEscan competition binding", "settings": "compound 10.0 µM"}, "RPS6KA6 KD2 (human)": {"biological_target": "RPS6KA6 KD2 (human) (UniProt Q9UK32)", "sequence (Q9UK32 whole entry, looked up)": "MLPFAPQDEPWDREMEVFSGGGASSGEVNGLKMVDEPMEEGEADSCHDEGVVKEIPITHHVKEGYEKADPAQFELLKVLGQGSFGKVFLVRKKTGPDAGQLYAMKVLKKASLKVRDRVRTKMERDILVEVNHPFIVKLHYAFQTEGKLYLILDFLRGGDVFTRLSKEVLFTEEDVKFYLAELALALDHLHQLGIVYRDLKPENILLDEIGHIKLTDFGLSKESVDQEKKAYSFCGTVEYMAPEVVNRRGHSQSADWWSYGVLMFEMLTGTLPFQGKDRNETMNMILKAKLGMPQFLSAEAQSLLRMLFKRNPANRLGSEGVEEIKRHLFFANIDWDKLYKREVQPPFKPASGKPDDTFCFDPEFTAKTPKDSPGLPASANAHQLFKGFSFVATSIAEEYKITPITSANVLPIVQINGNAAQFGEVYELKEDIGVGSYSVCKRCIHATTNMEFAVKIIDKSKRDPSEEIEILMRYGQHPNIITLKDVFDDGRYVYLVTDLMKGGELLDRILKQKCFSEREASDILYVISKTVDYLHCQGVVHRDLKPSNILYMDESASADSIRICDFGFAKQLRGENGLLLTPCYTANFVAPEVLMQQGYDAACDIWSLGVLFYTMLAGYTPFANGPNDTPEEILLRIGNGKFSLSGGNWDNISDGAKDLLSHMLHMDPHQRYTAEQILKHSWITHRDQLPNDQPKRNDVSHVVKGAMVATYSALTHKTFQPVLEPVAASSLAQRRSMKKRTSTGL", "assay": "KINOMEscan competition binding", "settings": "compound 10.0 µM"}, "EIF2AK2 (human)": {"biological_target": "EIF2AK2 (human) (UniProt P19525)", "assay": "KINOMEscan competition binding", "settings": "compound 10.0 µM"}, "PAK7 (human)": {"biological_target": "PAK7 (human) (UniProt Q9P286)", "assay": "KINOMEscan competition binding", "settings": "compound 10.0 µM"}, "MAPK15 (human)": {"biological_target": "MAPK15 (human) (UniProt Q8TD08)", "sequence (Q8TD08 whole entry, looked up)": "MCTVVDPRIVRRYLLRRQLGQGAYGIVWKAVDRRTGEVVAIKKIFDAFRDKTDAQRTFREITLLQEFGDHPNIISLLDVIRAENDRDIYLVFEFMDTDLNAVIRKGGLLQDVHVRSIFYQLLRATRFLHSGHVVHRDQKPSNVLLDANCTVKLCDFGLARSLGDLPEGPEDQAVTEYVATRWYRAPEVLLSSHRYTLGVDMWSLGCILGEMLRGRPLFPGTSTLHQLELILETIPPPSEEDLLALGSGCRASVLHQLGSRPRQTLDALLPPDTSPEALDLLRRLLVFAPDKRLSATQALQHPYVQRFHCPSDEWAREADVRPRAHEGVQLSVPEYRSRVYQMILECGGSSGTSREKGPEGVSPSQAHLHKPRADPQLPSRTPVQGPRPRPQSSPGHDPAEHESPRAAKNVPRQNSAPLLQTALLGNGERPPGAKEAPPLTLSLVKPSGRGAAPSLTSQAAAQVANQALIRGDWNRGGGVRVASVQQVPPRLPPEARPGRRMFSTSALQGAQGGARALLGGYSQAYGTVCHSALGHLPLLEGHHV", "assay": "KINOMEscan competition binding", "settings": "compound 10.0 µM"}, "MAPK8 (human)": {"biological_target": "MAPK8 (human) (UniProt P45983)", "sequence (P45983 whole entry, looked up)": "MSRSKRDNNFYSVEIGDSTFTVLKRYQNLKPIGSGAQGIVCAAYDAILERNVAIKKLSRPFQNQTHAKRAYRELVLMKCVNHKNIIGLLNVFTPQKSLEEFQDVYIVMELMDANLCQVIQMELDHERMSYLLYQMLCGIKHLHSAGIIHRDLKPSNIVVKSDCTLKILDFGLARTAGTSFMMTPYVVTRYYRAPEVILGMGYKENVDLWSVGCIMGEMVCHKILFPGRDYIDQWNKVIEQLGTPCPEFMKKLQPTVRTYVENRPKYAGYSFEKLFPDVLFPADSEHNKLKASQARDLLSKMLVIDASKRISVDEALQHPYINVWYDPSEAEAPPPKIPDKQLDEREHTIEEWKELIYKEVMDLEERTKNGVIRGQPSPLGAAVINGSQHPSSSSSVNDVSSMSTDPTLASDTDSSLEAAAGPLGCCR", "assay": "KINOMEscan competition binding", "settings": "compound 10.0 µM"}, "HIPK1 (human)": {"biological_target": "HIPK1 (human) (UniProt Q86Z02)", "assay": "KINOMEscan competition binding", "settings": "compound 10.0 µM"}, "CDK7 (human)": {"biological_target": "CDK7 (human) (UniProt P50613)", "assay": "KINOMEscan competition binding", "settings": "compound 10.0 µM"}, "ZAP70 (human)": {"biological_target": "ZAP70 (human) (UniProt P43403)", "assay": "KINOMEscan competition binding", "settings": "compound 10.0 µM"}, "TAOK3 (human)": {"biological_target": "TAOK3 (human) (UniProt Q9H2K8)", "assay": "KINOMEscan competition binding", "settings": "compound 10.0 µM"}, "TLK2 (human)": {"biological_target": "TLK2 (human) (UniProt Q86UE8)", "assay": "KINOMEscan competition binding", "settings": "compound 10.0 µM"}, "TTK (human)": {"biological_target": "TTK (human) (UniProt P33981)", "assay": "KINOMEscan competition binding", "settings": "compound 10.0 µM"}, "STK17A (human)": {"biological_target": "STK17A (human) (UniProt Q9UEE5)", "assay": "KINOMEscan competition binding", "settings": "compound 10.0 µM"}, "PAK2 (human)": {"biological_target": "PAK2 (human) (UniProt Q13177)", "assay": "KINOMEscan competition binding", "settings": "compound 10.0 µM"}, "PIM3 (human)": {"biological_target": "PIM3 (human) (UniProt Q86V86)", "assay": "KINOMEscan competition binding", "settings": "compound 10.0 µM"}, "MAPK14 (human)": {"biological_target": "MAPK14 (human) (UniProt Q16539)", "sequence (Q16539 whole entry, looked up)": "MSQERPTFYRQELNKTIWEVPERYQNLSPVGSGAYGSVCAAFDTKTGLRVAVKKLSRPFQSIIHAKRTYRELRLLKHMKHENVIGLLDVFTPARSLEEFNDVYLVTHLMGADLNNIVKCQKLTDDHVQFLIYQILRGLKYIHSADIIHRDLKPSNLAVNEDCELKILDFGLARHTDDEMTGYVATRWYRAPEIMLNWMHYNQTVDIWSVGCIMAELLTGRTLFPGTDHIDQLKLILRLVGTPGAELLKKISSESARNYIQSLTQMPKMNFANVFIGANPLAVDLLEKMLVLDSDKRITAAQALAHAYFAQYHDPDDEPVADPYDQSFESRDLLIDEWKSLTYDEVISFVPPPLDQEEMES", "assay": "KINOMEscan competition binding", "settings": "compound 10.0 µM"}, "MAPK9 (human)": {"biological_target": "MAPK9 (human) (UniProt P45984)", "assay": "KINOMEscan competition binding", "settings": "compound 10.0 µM"}, "PIM1 (human) [2]": {"biological_target": "PIM1 (human) (UniProt P11309)", "sequence (P11309 whole entry, looked up)": "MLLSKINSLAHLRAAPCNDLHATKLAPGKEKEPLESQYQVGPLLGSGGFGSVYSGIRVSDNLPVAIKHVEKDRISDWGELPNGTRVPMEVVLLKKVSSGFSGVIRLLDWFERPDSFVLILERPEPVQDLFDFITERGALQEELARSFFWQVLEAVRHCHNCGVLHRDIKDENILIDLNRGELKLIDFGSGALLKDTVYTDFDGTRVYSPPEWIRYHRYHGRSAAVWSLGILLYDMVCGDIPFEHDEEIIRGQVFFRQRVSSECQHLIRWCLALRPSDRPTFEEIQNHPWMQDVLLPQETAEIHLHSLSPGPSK", "assay": "KINOMEscan competition binding", "settings": "compound 10.0 µM"}, "PIM2 (human) [3]": {"biological_target": "PIM2 (human) (UniProt Q9P1W9)", "assay": "SelectScreen, TR FRET"}, "PIM1 (human) [4]": {"biological_target": "PIM1 (human) (UniProt P11309)", "assay": "SelectScreen, TR FRET"}, "CDC42BPB (human)": {"biological_target": "CDC42BPB (human) (UniProt Q9Y5S2)", "assay": "KINOMEscan competition binding", "settings": "compound 10.0 µM"}, "TLK1 (human)": {"biological_target": "TLK1 (human) (UniProt Q9UKI8)", "assay": "KINOMEscan competition binding", "settings": "compound 10.0 µM"}, "CSNK2A1 (human)": {"biological_target": "CSNK2A1 (human) (UniProt P68400)", "assay": "KINOMEscan competition binding", "settings": "compound 10.0 µM"}, "MKNK2 (human)": {"biological_target": "MKNK2 (human) (UniProt Q9HBH9)", "assay": "KINOMEscan competition binding", "settings": "compound 10.0 µM"}, "STK24 (human)": {"biological_target": "STK24 (human) (UniProt Q9Y6E0)", "sequence (Q9Y6E0 whole entry, looked up)": "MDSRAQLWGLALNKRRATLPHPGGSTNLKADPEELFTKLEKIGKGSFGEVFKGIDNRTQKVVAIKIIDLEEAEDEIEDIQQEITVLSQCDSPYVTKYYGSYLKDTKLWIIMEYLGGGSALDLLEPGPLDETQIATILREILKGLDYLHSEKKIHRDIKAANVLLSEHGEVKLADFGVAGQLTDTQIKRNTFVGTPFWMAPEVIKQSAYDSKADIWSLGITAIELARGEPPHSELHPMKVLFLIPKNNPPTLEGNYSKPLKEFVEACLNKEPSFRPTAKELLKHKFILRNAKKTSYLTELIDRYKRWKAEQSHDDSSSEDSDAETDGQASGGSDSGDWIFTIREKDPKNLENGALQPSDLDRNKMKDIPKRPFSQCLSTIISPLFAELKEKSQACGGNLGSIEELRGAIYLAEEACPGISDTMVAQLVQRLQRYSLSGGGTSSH", "assay": "KINOMEscan competition binding", "settings": "compound 10.0 µM"}, "STK17B (human)": {"biological_target": "STK17B (human) (UniProt O94768)", "assay": "KINOMEscan competition binding", "settings": "compound 10.0 µM"}, "DDR1 (human)": {"biological_target": "DDR1 (human) (UniProt Q08345)", "assay": "KINOMEscan competition binding", "settings": "compound 10.0 µM"}, "CSNK2A2 (human)": {"biological_target": "CSNK2A2 (human) (UniProt P19784)", "assay": "KINOMEscan competition binding", "settings": "compound 10.0 µM"}}}
{"smiles": "CSC1=NC(=O)/C(=C/c2ccc(-c3ccc(S(N)(=O)=O)cc3)o2)S1", "values": [{"measurement": "kinase still bound, per cent of control", "setting": "PLK4 (human)", "value": 0.05, "unit": "%"}, {"measurement": "kinase still bound, per cent of control", "setting": "GAK (human)", "value": 6.7, "unit": "%"}, {"measurement": "kinase still bound, per cent of control", "setting": "CLK2 (human)", "value": 9.8, "unit": "%"}, {"measurement": "kinase still bound, per cent of control", "setting": "STK25 (human)", "value": 32, "unit": "%"}, {"measurement": "kinase still bound, per cent of control", "setting": "CDK16 (human)", "value": 0.1, "unit": "%"}, {"measurement": "kinase still bound, per cent of control", "setting": "AAK1 (human)", "value": 14, "unit": "%"}, {"measurement": "kinase still bound, per cent of control", "setting": "MAP2K3 (human)", "value": 14, "unit": "%"}, {"measurement": "kinase still bound, per cent of control", "setting": "RPS6KA1 KD2 (human)", "value": 12, "unit": "%"}, {"measurement": "kinase still bound, per cent of control", "setting": "MYLK4 (human)", "value": 19, "unit": "%"}, {"measurement": "kinase still bound, per cent of control", "setting": "TAOK1 (human)", "value": 3.6, "unit": "%"}, {"measurement": "kinase still bound, per cent of control", "setting": "PIM2 (human) [1]", "value": 3, "unit": "%"}, {"measurement": "kinase still bound, per cent of control", "setting": "MAPK10 (human)", "value": 22, "unit": "%"}, {"measurement": "kinase still bound, per cent of control", "setting": "RPS6KA2 KD2 (human)", "value": 5.3, "unit": "%"}, {"measurement": "kinase still bound, per cent of control", "setting": "RPS6KA6 KD2 (human)", "value": 18, "unit": "%"}, {"measurement": "kinase still bound, per cent of control", "setting": "EIF2AK2 (human)", "value": 17, "unit": "%"}, {"measurement": "kinase still bound, per cent of control", "setting": "PAK7 (human)", "value": 28, "unit": "%"}, {"measurement": "kinase still bound, per cent of control", "setting": "MAPK15 (human)", "value": 29, "unit": "%"}, {"measurement": "kinase still bound, per cent of control", "setting": "MAPK8 (human)", "value": 31, "unit": "%"}, {"measurement": "kinase still bound, per cent of control", "setting": "HIPK1 (human)", "value": 6.5, "unit": "%"}, {"measurement": "kinase still bound, per cent of control", "setting": "CDK7 (human)", "value": 1.4, "unit": "%"}, {"measurement": "kinase still bound, per cent of control", "setting": "ZAP70 (human)", "value": 32, "unit": "%"}, {"measurement": "kinase still bound, per cent of control", "setting": "TAOK3 (human)", "value": 24, "unit": "%"}, {"measurement": "kinase still bound, per cent of control", "setting": "TLK2 (human)", "value": 28, "unit": "%"}, {"measurement": "kinase still bound, per cent of control", "setting": "TTK (human)", "value": 16, "unit": "%"}, {"measurement": "kinase still bound, per cent of control", "setting": "STK17A (human)", "value": 2.5, "unit": "%"}, {"measurement": "kinase still bound, per cent of control", "setting": "PAK2 (human)", "value": 34, "unit": "%"}, {"measurement": "kinase still bound, per cent of control", "setting": "PIM3 (human)", "value": 1.8, "unit": "%"}, {"measurement": "kinase still bound, per cent of control", "setting": "MAPK14 (human)", "value": 19, "unit": "%"}, {"measurement": "kinase still bound, per cent of control", "setting": "MAPK9 (human)", "value": 6, "unit": "%"}, {"measurement": "kinase still bound, per cent of control", "setting": "PIM1 (human) [2]", "value": 1.6, "unit": "%"}]}
{"smiles": "O=C1NC(=O)/C(=C/c2ccc(-c3ccc4c(C(=O)Nc5cccc(C(F)(F)F)c5)cccc4c3)o2)S1", "values": [{"measurement": "IC50", "setting": "PIM2 (human) [3]", "value": 2.91, "unit": "µM"}, {"measurement": "IC50", "setting": "PIM1 (human) [4]", "value": 9.02, "unit": "µM"}, {"measurement": "kinase still bound, per cent of control", "setting": "RPS6KA1 KD2 (human)", "value": 23, "unit": "%"}, {"measurement": "kinase still bound, per cent of control", "setting": "PIM2 (human) [1]", "value": 0.75, "unit": "%"}, {"measurement": "kinase still bound, per cent of control", "setting": "RPS6KA2 KD2 (human)", "value": 31, "unit": "%"}, {"measurement": "kinase still bound, per cent of control", "setting": "CDC42BPB (human)", "value": 28, "unit": "%"}, {"measurement": "kinase still bound, per cent of control", "setting": "TLK1 (human)", "value": 24, "unit": "%"}, {"measurement": "kinase still bound, per cent of control", "setting": "RPS6KA6 KD2 (human)", "value": 25, "unit": "%"}, {"measurement": "kinase still bound, per cent of control", "setting": "CSNK2A1 (human)", "value": 33, "unit": "%"}, {"measurement": "kinase still bound, per cent of control", "setting": "MAPK8 (human)", "value": 30, "unit": "%"}, {"measurement": "kinase still bound, per cent of control", "setting": "MKNK2 (human)", "value": 34, "unit": "%"}, {"measurement": "kinase still bound, per cent of control", "setting": "STK24 (human)", "value": 29, "unit": "%"}, {"measurement": "kinase still bound, per cent of control", "setting": "STK17B (human)", "value": 7.4, "unit": "%"}, {"measurement": "kinase still bound, per cent of control", "setting": "PIM3 (human)", "value": 11, "unit": "%"}, {"measurement": "kinase still bound, per cent of control", "setting": "PIM1 (human) [2]", "value": 14, "unit": "%"}, {"measurement": "kinase still bound, per cent of control", "setting": "DDR1 (human)", "value": 21, "unit": "%"}, {"measurement": "kinase still bound, per cent of control", "setting": "CSNK2A2 (human)", "value": 33, "unit": "%"}]}
